Laboratory results as given in the RepoRT retention time repository (doi:10.1016/j.foodchem.2021.129757).

How the values were obtained:
Conditions in all cases: stereoisomer not certain
[1] = RP, 150 × 2.1 mm, 2.6 µm, 40 °C, 0.35 mL/min, estimated dead time 0.94 min; A: water + 0.1% formic acid, pH 3; B: acetonitrile + 0.1% formic acid, pH 3; gradient (min/%B) 0/0 1/5 7/45 8.5/80 10.5/80 11/5 12/5
[2] = RP, 150 × 2.1 mm, 2.6 µm, 40 °C, 0.35 mL/min, estimated dead time 0.94 min; A: water + 0.1% formic acid, pH 3; B: acetonitrile + 0.1% formic acid, pH 3; gradient (min/%B) 0/0 1/0 12.5/100 14/100 14.2/0 15/0
[3] = Other, Phenomenex Kinetex PFP, 100 × 4.6 mm, 5 µm, 45 °C, 0.6 mL/min, estimated dead time 1.8 min; A: water + 0.1% trifluoroacetic acid, pH 2; B: methanol; gradient (min/%B) 0/40 20/72 21/40
[4] = RP, Waters ACQUITY UPLC HSS T3, 100 × 2.1 mm, 1.8 µm, 30 °C, 0.4 mL/min, estimated dead time 0.55 min; A: water + 0.1% formic acid, pH 3; B: acetonitrile + 0.1% formic acid, pH 3; gradient (min/%B) 0/0 2/0 15/100 22/100 22.1/0 26/0
[5] = RP, Merck LiChrospher RP-18, 250 × 4 mm, 5 µm, 35 °C, 0.3 mL/min, estimated dead time 6.7 min; A: water + 0.5% formic acid; B: acetonitrile + 0.5% formic acid; gradient (min/%B) 0/5 10/5 30/15 45/20 65/20 95/54 110/63 115/5 135/5
[6] = RP, Phenomenex Synergi Hydro-RP, 250 × 2 mm, 4 µm, 25 °C, 0.2 mL/min, estimated dead time 2.5 min; A: water + 0.1% formic acid, pH 3; B: acetonitrile + 0.1% formic acid, pH 3; gradient (min/%B) 0/0.5 7/0.5 12/12.5 25/16.3 47/35 48/65 50/65 50.1/0.5
[7] = RP, Merck Supelco SUPELCOSIL LC-C18, 250 × 4.6 mm, 5 µm, 40 °C, 1 mL/min, estimated dead time 2.6 min; A: water + 0.1% trifluoroacetic acid, pH 2; B: acetonitrile + 0.1% trifluoroacetic acid, pH 2; gradient (min/%B) 0/5 45/35 47/75 49/35 50/5
[8] = RP, Agilent InfinityLab Poroshell 120 EC-C18, 100 × 3 mm, 2.7 µm, 25 °C, 0.4 mL/min, estimated dead time 1.1 min; A: water + 0.1% formic acid, pH 3; B: acetonitrile + 0.1% formic acid, pH 3; gradient (min/%B) 0/5 10/25 20/40 24/90 25/90 26/5 30/5
[9] = RP, Waters ACQUITY UPLC BEH C18, 100 × 2.1 mm, 1.7 µm, 65 °C, 0.4 mL/min, estimated dead time 0.55 min; A: water + 0.1% formic acid, pH 3; B: 80% acetonitrile + 20% acetone + 0.1% formic acid, pH 3; gradient (min/%B) 0/0 5/100 5.5/0 6/0
[10] = RP, Agilent ZORBAX RRHD Eclipse Plus C18, 50 × 2.1 mm, 1.8 µm, 30 °C, 0.4 mL/min, estimated dead time 0.28 min; A: water + 0.1% formic acid, pH 3; B: acetonitrile + 0.1% formic acid, pH 3; gradient (min/%B) 0/1 5/10 8/25 9.1/99 10/99 12/1
[11] = RP, Agilent ZORBAX RRHD Eclipse Plus C18, 50 × 2.1 mm, 1.8 µm, 30 °C, 0.4 mL/min, estimated dead time 0.28 min; A: water + 0.1% formic acid, pH 3; B: acetonitrile + 0.1% formic acid, pH 3; gradient (min/%B) 0/1 5/10 8/25 9.1/99 10/99 12/99
[12] = RP, Waters ACQUITY UPLC BEH Shield RP18, 150 × 2.1 mm, 1.7 µm, 40 °C, 0.4 mL/min, estimated dead time 0.83 min; A: water + 0.1% formic acid, pH 3; B: acetonitrile + 0.1% formic acid, pH 3; gradient (min/%B) 0/0 30/50 31/100 37/100 37.1/0
[13] = RP, Waters ACQUITY UPLC HSS T3, 100 × 2.1 mm, 50 °C; A: water + 0.1% formic acid, pH 3; B: 30% methanol + 70% acetonitrile + 0.1% formic acid, pH 3; gradient (min/%B) 0/5 1/8 2/15 3/40 4/70 4.5/100 5/100 6.4/100 6.6/5 6.8/5 7/5
[14] = RP, Agilent ZORBAX Eclipse XDB-C18, 100 × 2.1 mm, 1.8 µm, 50 °C, 0.4 mL/min, estimated dead time 0.55 min; A: water + 0.1% formic acid, pH 3; B: methanol + 0.1% formic acid, pH 3; gradient (min/%B) 0/2 10/100 14.5/100 14.51/2 16.5/2
[15] = RP, Waters Atlantis T3, 100 × 2.1 mm, 3 µm, 40 °C, 0.3 mL/min, estimated dead time 0.73 min; A: water + 0.1% trifluoroacetic acid, pH 2; B: acetonitrile + 0.1% trifluoroacetic acid, pH 2; gradient (min/%B) 0/10 1/10 6/40 7/50 8/50 14/70 16/80 20/10 25/10
[16] = RP, Phenomenex Kinetex EVO C18, 100 × 2.1 mm, 2.6 µm, 40 °C, 0.4 mL/min, estimated dead time 0.55 min; A: water + 0.2% formic acid; B: acetonitrile + 0.2% formic acid; gradient (min/%B) 0/5 0.5/5 7/95 8/95 8.5/5 12/5

Compound: O=C(OC1Cc2c(O)cc(O)cc2OC1c1ccc(O)c(O)c1)c1cc(O)c(O)c(O)c1 (centres undefined) [Epicatechin gallate]
- LC retention time [1]: 5.72 min
- LC retention time [2]: 5.67 min
- LC retention time [3]: 5.76 min
- LC retention time [4]: 9.36 min
- LC retention time [5]: 58.6 min

Compound: CC1OC(Oc2c(-c3ccc(O)c(O)c3)oc3cc(O)cc(O)c3c2=O)C(O)C(O)C1O (centres undefined) [Quercitrin]
- LC retention time [1]: 6.17 min
- LC retention time [6]: 38.3 min
- LC retention time [2]: 6.01 min
- LC retention time [7]: 29.4 min

Compound: O=C1CC(c2ccc(O)c(O)c2)Oc2cc(O)cc(O)c21 (centres undefined) [Eriodictyol]
- LC retention time [1]: 7.21 min
- LC retention time [2]: 6.95 min
- LC retention time [8]: 13.7 min
- LC retention time [3]: 15.4 min
- LC retention time [9]: 2.59 min
- LC retention time [4]: 10.9 min
- LC retention time [5]: 88.7 min

Compound: O=C(O)C=Cc1ccccc1O [o-Coumaric acid]
- LC retention time [10]: 8.32 min
- LC retention time [1]: 6.36 min
- LC retention time [6]: 37.5 min
- LC retention time [2]: 6.29 min
- LC retention time [11]: 8.67 min
- LC retention time [7]: 25.9 min
- LC retention time [12]: 12.7 min
- LC retention time [5]: 74.4 min

Compound: O=C(O)C=Cc1ccccc1 [Cinnamic acid-trans]
- LC retention time [10]: 9.09 min
- LC retention time [6]: 46.7 min
- LC retention time [13]: 2.74 min
- LC retention time [14]: 6.27 min
- LC retention time [9]: 2.79 min
- LC retention time [7]: 35.6 min
- LC retention time [12]: 16.2 min
- LC retention time [5]: 92.9 min

Compound: O=C(O)c1cc(O)ccc1O [Gentisic acid]
- LC retention time [10]: 4.25 min
- LC retention time [1]: 4.37 min
- LC retention time [6]: 19.9 min
- LC retention time [2]: 4.7 min
- LC retention time [11]: 2.82 min
- LC retention time [8]: 5.44 min
- LC retention time [14]: 2.85 min
- LC retention time [4]: 8.3 min
- LC retention time [7]: 12.5 min
- LC retention time [12]: 6.28 min

Compound: COc1cc(-c2[o+]c3cc(O)cc(O)c3cc2OC2OC(CO)C(O)C(O)C2O)ccc1O (centres undefined) [Peonidin-3-O-glucoside]
- LC retention time [7]: 24.8 min

Compound: O=C(C=Cc1ccc(O)c(O)c1)OC1C(O)CC(O)(C(=O)O)CC1O (centres undefined) [Cryptochlorogenic acid]
- LC retention time [1]: 4.45 min
- LC retention time [2]: 4.63 min
- LC retention time [7]: 14.1 min

Compound: OCC1OC(Oc2cc3c(OC4OC(CO)C(O)C(O)C4O)cc(O)cc3[o+]c2-c2ccc(O)c(O)c2)C(O)C(O)C1O (centres undefined) [Cyanidin-3,5-O-diglucoside]
- LC retention time [7]: 16.4 min

Compound: O=C(O)c1cccc(O)c1 [3-Hydroxybenzoic acid]
- LC retention time [15]: 5.01 min
- LC retention time [10]: 5.36 min
- LC retention time [6]: 22.7 min
- LC retention time [11]: 4.26 min
- LC retention time [3]: 5.57 min

Compound: O=C(O)C=Cc1ccc(O)cc1O [2,4-Dihydroxycinnamic acid]
- LC retention time [3]: 5.73 min
- LC retention time [13]: 3.08 min

Compound: OCC1OC(Oc2cc3c(O)cc(O)cc3[o+]c2-c2ccc(O)cc2)C(O)C(O)C1O (centres undefined) [Pelargonidin-3-O-glucoside]
- LC retention time [7]: 23.4 min

Compound: COc1cc(-c2[o+]c3cc(O)cc(O)c3cc2OC2OC(CO)C(O)C(O)C2O)cc(O)c1O (centres undefined) [Petunidin-3-O-glucoside]
- LC retention time [7]: 22.3 min

Compound: CC1OC(OCC2OC(Oc3cc4c(O)cc(=O)cc-4oc3-c3ccc(O)cc3)C(O)C(O)C2O)C(O)C(O)C1O (centres undefined) [Pelargonidin-3-O-rutinoside]
- LC retention time [7]: 24.3 min

Compound: O=c1cc(-c2ccccc2)oc2cc(O)cc(O)c12 [Chrysin]
- LC retention time [8]: 22.2 min
- LC retention time [7]: 39.4 min

Compound: COc1cc(C(=O)O)cc(OC)c1O [Syringic acid]
- LC retention time [15]: 5.12 min
- LC retention time [1]: 4.88 min
- LC retention time [6]: 23.1 min
- LC retention time [2]: 5.04 min
- LC retention time [8]: 6.44 min
- LC retention time [13]: 3.33 min
- LC retention time [9]: 1.8 min
- LC retention time [7]: 15.5 min

Compound: O=C(OC1Cc2c(O)cc(O)cc2OC1c1cc(O)c(O)c(O)c1)c1cc(O)c(O)c(O)c1 (single isomer, unassigned; (-)) [(-)-Epigallocatechin gallate]
- LC retention time [15]: 6.14 min
- LC retention time [1]: 5.02 min
- LC retention time [2]: 5.08 min
- LC retention time [16]: 4.38 min
- LC retention time [7]: 16.9 min

Compound: O=C(C=Cc1ccc(O)c(O)c1)OC1CC(OC(=O)C=Cc2ccc(O)c(O)c2)(C(=O)O)CC(O)C1O (centres undefined) [1,3-dicaffeoylquinic acid]
- LC retention time [7]: 19.1 min

Compound: O=c1c(O)c(-c2ccc(O)c(O)c2)oc2cc(O)ccc12 [Fisetin]
- LC retention time [4]: 10.2 min
- LC retention time [7]: 30.9 min

Compound: O=c1cc(-c2ccc(O)cc2)oc2cc(O)cc(O)c12 [Apigenin]
- LC retention time [15]: 10.1 min
- LC retention time [8]: 16.3 min
- LC retention time [7]: 43.2 min
- LC retention time [12]: 23.6 min
- LC retention time [5]: 97 min

Compound: O=C(O)C1OC(Oc2c(-c3ccc(O)c(O)c3)oc3cc(O)cc(O)c3c2=O)C(O)C(O)C1O (centres undefined) [Quercetin-3-O-glucuronide]
- LC retention time [10]: 7.9 min
- LC retention time [11]: 8.38 min
- LC retention time [16]: 4.92 min
- LC retention time [7]: 26.2 min
- LC retention time [12]: 13.7 min

Compound: COc1cc(C2Oc3c(O)cc(C4Oc5cc(O)cc(O)c5C(=O)C4O)cc3C2CO)ccc1O (centres undefined) [Silychristin]
- LC retention time [3]: 10.3 min

Compound: COc1cc(C2Oc3c(O)cc(-c4oc5cc(O)cc(O)c5c(=O)c4O)cc3C2CO)ccc1O (centres undefined) [2,3-Dehydrosilychristin A]
- LC retention time [3]: 17.5 min

Compound: O=c1c(OC2OC(CO)C(O)C(O)C2O)c(-c2ccc(O)c(O)c2)oc2cc(O)cc(O)c12 (centres undefined) [Quercetin-3-O-glucoside]
- LC retention time [3]: 9.23 min

Compound: O=c1cc(-c2ccc(O)c(OS(=O)(=O)O)c2)oc2cc(O)cc(O)c12 [Luteolin 3-sulfate]
- LC retention time [3]: 16.4 min

Compound: O=c1c(-c2ccc(O)cc2)coc2cc(O)ccc12 [Daidzein]
- LC retention time [8]: 12.9 min
- LC retention time [9]: 2.53 min
- LC retention time [4]: 10.7 min
- LC retention time [7]: 34.6 min
- LC retention time [12]: 17.9 min
